Data as given in PMC9851200, “Multiparameter phenotypic screening for endogenous TFEB and TFE3 translocation identifies novel chemical series modulating lysosome function” (Autophagy, 2022).
Like-named read-outs stand apart in the source and are kept apart here.

Legend:
[1] = tested on: endogenous TFE3; test: TFE3 nuclear translocation, immunocytochemistry high-content imaging; type: cell-based
[2] = tested on: SH-SY5Y cells; test: AK (adenylate kinase) release ToxiLight cytotoxicity assay; also: reference of the scale not given here
[3] = tested on: SH-SY5Y cells; test: Nuclear count from microscopy images (cellular growth and toxicity); also: reference of the scale not given here
[4] = tested on: SH-SY5Y cells; also: reference of the scale not given here
[5] = tested on: endogenous TFEB; test: TFEB nuclear translocation, immunocytochemistry high-content imaging; type: cell-based
[6] = PKIS2 primary screening, DQ Red BSA intensity
[7] = PKIS2 primary screening, DQ Red BSA spot count

SMILES | TFE3 % ([1]; PKIS2 primary screening) [%] | AK ([2]; PKIS2 primary screening) | Nuclear Count ([3]; PKIS2 primary screening) | DQ Intensity ([4]; PKIS2 primary screening) | DQ Spot ([4]; PKIS2 primary screening) | TFEB % ([5]; PKIS2 primary screening) [%] | TFE3 % ([1]; PKIS2 primary screen) [%] | AK ([2]; PKIS2 primary screen) | Nuclear Count ([3]; PKIS2 primary screen) | DQ Intensity ([4]; PKIS2 primary screen, DQ Red BSA intensity) | DQ Spot ([4]; PKIS2 primary screen, DQ Red BSA spot count) | TFEB % ([5]; PKIS2 primary screen) [%] | DQ Intensity [4, 6] | DQ Spot [4, 7]
Cn1cc(-c2ccc3c(c2)CCN3C(=O)Cc2cccc(C(F)(F)F)c2)c2c(N)ncnc21 [UNC10225165A] | 14.20 | 93.68 | 103.31 | 124.78 | 91.55 | 6.03 |  |  |  |  |  |  |  | 
O=c1[nH]cc(-c2ccc(O)cc2)c2sc(-c3ccncc3)cc12 [UNC10225166A] |  |  |  |  |  |  | 6.08 | 95.26 | 145.07 | 80.95 | 75.27 | 3.69 |  | 
c1ccc(-c2cc(-c3c[nH]nc3-c3ccccn3)ccn2)cc1 [UNC10225169A] | 6.57 | 72.24 | 139.75 |  |  | 2.50 |  |  |  |  |  |  | 83.52 | 97.79
Cn1cc(-c2ccc3c(c2)CCN3C(=O)Cc2ccccc2Cl)c2c(N)ncnc21 [UNC10225172A] | 8.56 | 106.54 | 63.66 | 88.08 | 66.39 | 8.22 |  |  |  |  |  |  |  | 
Nc1nccc(-c2c(-c3ccc(F)cc3)ncn2C2CCN(CC(F)(F)F)CC2)n1 [UNC10225173A] | 11.80 | 117.50 | 107.53 | 90.34 | 99.50 | 11.13 |  |  |  |  |  |  |  | 
O=C(Nc1cccc(-c2nn3ncccc3c2-c2ccnc(Nc3cccc(C(F)(F)F)c3)n2)c1)c1c(F)cccc1F [UNC10225174A] | 11.86 | 107.72 | 93.11 | 102.81 | 113.18 | 2.89 |  |  |  |  |  |  |  | 
Cc1nn2c(=O)cc(N3CCOCC3)nc2n1Cc1cccc(Cl)c1Cl [UNC10225178A] | 28.29 | 116.91 | 93.42 | 66.02 | 117.74 | 7.97 |  |  |  |  |  |  |  | 
FC(F)(F)c1ccccc1-c1cc(-c2c[nH]nc2-c2ccccn2)ccn1 [UNC10225184A] | 4.50 | 124.66 | 131.35 |  |  | 5.60 |  |  |  |  |  |  | 88.51 | 92.76
CN1CCN(CCCNc2nccc(-c3c(-c4ccc(F)cc4)nn4cc(C(N)=O)ccc34)n2)CC1 [UNC10225188A] | 19.47 | 105.02 | 94.19 | 87.92 | 111.81 | 6.08 |  |  |  |  |  |  |  | 
Cc1nn2c(=O)cc(N3CCO[C@H](C)C3)nc2n1Cc1cccc(Cl)c1Cl [UNC10225190A] | 6.51 | 79.35 | 111.47 | 96.99 | 93.26 | 6.05 |  |  |  |  |  |  |  | 
FC(F)(F)c1cc(Br)cc(Nc2nccc(-c3cnn4ncccc34)n2)c1 [UNC10225191A] | 14.10 | 83.14 | 72.92 | 110.85 | 116.61 | 6.52 |  |  |  |  |  |  |  | 
FC(F)(F)c1cc(Nc2nccc(-c3c(-c4ccc(Cl)cc4)nn4ncccc34)n2)ccc1Cl [UNC10225192A] | 11.31 | 128.18 | 86.86 | 96.76 | 105.34 | 6.87 |  |  |  |  |  |  |  | 
CCOc1nccc(-c2c(-c3ccc(F)cc3)ncn2C2CCNCC2)n1 [UNC10225194A] | 13.41 | 122.01 | 127.90 | 81.72 | 85.28 | 5.88 |  |  |  |  |  |  |  | 
Cc1c(Cn2c3ccccc3n3c(=O)cc(N4CCOCC4)nc23)cccc1C(F)(F)F [UNC10225195A] | 10.62 | 76.50 | 108.51 | 86.55 | 100.26 | 7.03 |  |  |  |  |  |  |  | 
NCC(NC(=O)c1cc(-c2cn[nH]c2)c(-c2ccnc3[nH]ccc23)s1)c1ccccc1.O=C(O)C(F)(F)F.O=C(O)C(F)(F)F (stereo not drawn) [UNC10225196A] | 18.18 | 105.21 | 81.98 |  |  | 5.85 |  |  |  |  |  |  | 69.88 | 101.21
COc1cccc(NC(=O)Nc2ccc(C)c(-c3ccc(C(=O)Nc4ccncc4)cc3)c2)c1 [UNC10225200A] | 12.37 | 112.40 | 79.81 | 99.65 | 116.14 | 7.95 |  |  |  |  |  |  |  | 
Nc1nc(-c2ccccn2)c(-c2ccnc3ccccc23)s1 [UNC10225201A] | 10.28 | 81.66 | 144.30 |  |  | 4.25 |  |  |  |  |  |  | 97.54 | 92.32
Nc1ncnc2c1ncn2-c1ccc(Cl)cc1 [UNC10225203A] | 14.23 | 145.27 | 80.96 | 65.28 | 88.83 | 5.10 |  |  |  |  |  |  |  | 
